From patent US20170260121A1, “COMPOUND, PROCESS FOR PREPARING A COMPOUND, PHARMACEUTICAL COMPOSITION, USE OF A COMPOUND AND METHOD FOR TREATING CANCER” (FUNDAÇÃO OSWALDO CRUZ, priority 2014, published 2017)

Assays:
[1] = system: SKMEL28 (melanoma) cells; assay: anti-proliferative assay (MTT, 48 h); format: cell-based, human; details: SKMEL, 0.01 to 100 μM
Experimental: (§1) Example 6 was carried out to determine the biological activity of the following samples: (S)-perillyl alcohol, (S)-AP, (R)-AP, (S)-NAP, and (R)-NAP on human tumor lineages. (S)-perillyl alcohol was tested in combination with the samples of sodium acids and salts, because it is a substance which is considered to have some established clinical efficacy.
(§2) Samples (R)-AP, (S)-AP, (R)-NAP, (S)-NAP and perillyl alcohol (POH) were received and solubilized in DMSO or saline solution (NaCl 0.9%) and conserved at −20° C. until the day of the experiment, when they were immediately diluted before use, in a cell culture medium, DMEM, enriched with 10% fetal bovine serum, […] penicillin, and 0.1 mg/ml streptomycin, and 0.05 mg/ml gentamicin (DMEM complete medium). The experiments were carried out according to the Standard Operational Procedure of the Laboratory of Molecular Pharmacology FARMO1003 version 00, which are summarized below.
(§3) K562 (leukemia), LUCENA (multi-drug resistant leukemia), SKMEL28 (melanoma) and MCF7 (breast tumor) cells were cultivated on a DEM complete culture medium, and kept in log growth phase. Twenty-four hours before the treatment with the samples, 100 μl of the cell suspension (5×10^4 cells/ml) were added to wells of 96-well plates and kept in the oven at 5% CO2 atmosphere, at 37° C.
(§4) The treatment for each of the five samples was carried out in response dosage (0.01 to 100 μM; 5 spots), each concentration in triplicate.
(§5) After 48 hours, thiazolyl blue was added (MTT; SIGMA code M5655) and the plate was kept in the oven with CO2 for 4 hours. After the incubation time, the supernatant was aspirated and formazan crystals, formed by the cellular activity, were solubilized with isopropyl alcohol and, after full solubilization, the optical density determination was carried out in a microplate reader at 570 nm (VictorX5; Perkin Elmer USA).

[2] = system: K562 (leukemia) cells; assay: anti-proliferative assay (MTT, 48 h); format: cell-based, human; details: K562, 0.01 to 100 μM
Experimental: as §1, §2, §3, §4, §5

[3] = system: Lucena (multi-drug resistant leukemia) cells; assay: anti-proliferative assay (MTT, 48 h); format: cell-based, human; details: 0.01 to 100 μM
Experimental: as §1, §2, §3, §4, §5

[4] = system: MCF7 (breast tumor) cells; assay: anti-proliferative assay (MTT, 48 h); format: cell-based, human; details: MCF7, 0.01 to 100 μM
Experimental: as §1, §2, §3, §4, §5

[5] = system: human colon adenocarcinoma (Caco-2); assay: MTT viability test, (S)-NAP 24 h; format: cell-based; details: Caco-2, NAP dosage 1.5-5.0 mM
Experimental: (§6) The effect of (S)-NAP on the viability of human colon adenocarcinoma cells with increasing degrees of malignancy was first evaluated. Caco2, HT-29, HCT-116 and a normal control cell MDCK, a […] kidney cell. Proliferation assays
(§7) (i) Cell cultures: Lineages of human colon adenocarcinoma cells with decreasing malignancy levels, HCT 116, HT-29 and Caco-2, were used. As a control of the epithelial cell model, a normal cell line of drainage epithelium (IEC-6) was used. These cells were cultured according to the ATCC specifications and maintained in a DMEM medium in an oven, with 5% CO2, at 37° C. until reaching semiconfluence.
(§8) (ii) Treatments: Initially, concentrations of sodium perylate (1.0, 1.8, 2.6, 3.4, 4.2 and 5.0 mM) were tested to determine the IC50 of the drug. Monolayers of semiconfluent cells were serum-depleted for 24 hours before treatment with (S)-NAP and during the treatment for 24 h.
(§9) (iii) Viability test: The lineages were plated in 96-well flat-bottom plates with DMEM culture medium containing the different (S)-NAP concentrations described above. Cell incubation with (S)-NAP was conducted for 24 h, at 37° C., upon which, the plates were incubated for 2 h with MTT [3-(4,5-dimethylthiazol-2-yl)-2,5diphenyltetrazolium bromide] 2.5 mg/ml, at a final concentration of 250 μg/ml. The plates were centrifuged at 1200 RPM, at 4° C., for 5 minutes, poured to remove the supernatant, since the crystals had deposited inside the cells. Formazan crystals were dissolved into […] of DMSO and homogenized manually and through the device. Absorbances were determined at 538 nm in a plate reader (Spectra Max 190). Controls of 100% viability, with no drug addition, and of 0% viability using formaldehyde were carried out simultaneously with the experiment.

[6] = system: human colon adenocarcinoma (HT-29); assay: MTT viability test, (S)-NAP 24 h; format: cell-based; details: HT-29, NAP dosage 1.5-5.0 mM, concentration limited by NAP solubility
Experimental: as §6, §7, §8, §9

[7] = system: human colon adenocarcinoma (HCT-116); assay: MTT viability test, (S)-NAP 24 h; format: cell-based; details: HCT-116, NAP dosage 1.0-5.0 mM
Experimental: as §6, §7, §8, §9

[8] = solubility in an aqueous medium; format: physicochemical; details: relative to POH and PA

Structure (SMILES)	inhibition (in words) [1]	inhibition (in words) [4]	other results
C=C(C)C1CC=C(C(=O)[O-])CC1.[Na+] (stereo in doubt) [(R)-NAP, sodium perylate]	no inhibition making IC50 calculation necessary	–	IC50 [2]: 1.24 µM; IC50 [3]: 0.013 µM
C=C(C)[C@H]1CC=C(C(=O)O)CC1 [(R)-PA, perillic acid]	–	no inhibition making IC50 calculation necessary	–
C=C(C)[C@@H]1CC=C(C(=O)[O-])CC1.[Na+] [(S)-NAP, sodium perylate]	–	no inhibition making IC50 calculation necessary	Result (viability) [5]: Refractory; IC50 [6]: > 5000 µM; IC50 [7]: > 3400 µM
C=C(C)[C@@H]1CC=C(C(=O)O)CC1 [(S)-PA, perillic acid, reference compound]	no inhibition making IC50 calculation necessary	no inhibition making IC50 calculation necessary	–
C=C(C)C1CC=C(C(=O)[O-])CC1.[Na+] (stereo not drawn) [NAP, sodium perylate]	–	–	solubility in an aqueous medium compared with POH and PA [8]: higher
C=C(C)[C@@H]1CC=C(CO)CC1 [POH, perillyl alcohol]	–	no inhibition making IC50 calculation necessary	–
